Reference: patent US6723750B2, “Photodynamic therapy for pre-melanomas” (Allergan, Inc., priority 2002, dated 2004)

System: pre-melanoma
Assay: Photodynamic therapy of pre-melanoma around the excision site after surgical melanoma removal (patient case examples)
Assay type: in vivo, human
Description: The melanoma is surgically removed and the patient is treated for pre-melanoma using photodynamic therapy. The area around the point of excision of the melanoma is contacted with a composition which includes aminolevulinic acid methyl ester at about a 10% (w/w) and a penetrating agent, DMSO, at a concentration of about 10% (w/w). The composition is applied directly to and around the site of excision of the melanoma covering an area of approximately 100 cm^2. The application is repeated once an hour for an 8 hour period. The area is then exposed to light in the wavelength range of about 500 to about 700 nm for approximately 10 hours.
The melanoma is surgically removed and the patient is treated for pre-melanoma using photodynamic therapy. The area around the point of excision of the melanoma is contacted with an ointment which includes amino levulinic acid methyl ester at about 5% (w/w) and a penetrating agent, DMSO, at a concentration of about 15% (w/w). The ointment is applied directly to and around the site of excision of the melanoma. The site of application is covered with a semi-permeable membrane for 24 hours after which the application is repeated and again covered for a 24 hour period. The area is then exposed to light in the wavelength range of about 610 nm to about 670 nm for approximately 2 hours once a day for four straight days. […]

COC(=O)CCC(=O)CN [aminolevulinic acid methyl ester]
cancer status of patient after treatment (Example 3: thigh, superficial spreading melanoma removed, about 10% (w/w) with DMSO about 10% (w/w), topical, once an hour for 8 hours, light about 500 to about 700 nm approx. 10 hours, at one year after treatment): no sign of cancer | cancer status of patient after surgery and treatment (Example 6: foot, acral lentiginous melanoma removed, ointment about 5% (w/w) with DMSO about 15% (w/w), two 24 hour applications, light about 610 nm to about 670 nm approx. 2 hours once a day for four days, two years after surgery): no sign of the cancer
